Details: Liquid, Vibrating tube method

CCn1cc[n+](C)c1.O=S(=O)([N-]S(=O)(=O)C(F)(F)F)C(F)(F)F
Details | mass density [kg/m3]
283.15 K, 101.33 kPa | 1533.48
283.19 K, 1750 kPa | 1533.9
283.19 K, 5136 kPa | 1536.34
283.19 K, 49993 kPa | 1565.54
283.19 K, 60272 kPa | 1571.51
283.19 K, 69996 kPa | 1577
283.19 K, 80287 kPa | 1582.65
283.19 K, 89994 kPa | 1587.84
283.2 K, 10046 kPa | 1539.78
283.2 K, 29957 kPa | 1553.14
283.2 K, 40033 kPa | 1559.47
283.21 K, 20030 kPa | 1546.57
283.21 K, 100034 kPa | 1593.02
293.14 K, 99755 kPa | 1584.89
293.15 K, 101.33 kPa | 1523.37
293.15 K, 10202 kPa | 1530.8
293.15 K, 89934 kPa | 1579.84
293.16 K, 20787 kPa | 1538.14
293.16 K, 59685 kPa | 1562.92
293.16 K, 69993 kPa | 1568.91
293.17 K, 1027 kPa | 1524.24
293.17 K, 4981 kPa | 1527.1
293.17 K, 29994 kPa | 1544.31
293.17 K, 49993 kPa | 1557.07
293.17 K, 79912 kPa | 1574.47
293.19 K, 39872 kPa | 1550.73
298.12 K, 19701 kPa | 1532.45
298.12 K, 29779 kPa | 1539.35
298.13 K, 39926 kPa | 1546.05
298.14 K, 1156 kPa | 1519.1
298.15 K, 101.33 kPa | 1518.34
298.15 K, 49997 kPa | 1552.45
298.17 K, 5194 kPa | 1522.08
298.18 K, 90001 kPa | 1575.41
298.18 K, 99950 kPa | 1580.52
298.19 K, 10066 kPa | 1525.62
298.19 K, 69997 kPa | 1564.42
298.19 K, 79938 kPa | 1570
298.2 K, 59613 kPa | 1558.32
313.15 K, 101.33 kPa | 1503.33
313.15 K, 10156 kPa | 1510.84
313.15 K, 29996 kPa | 1525.09
313.15 K, 39897 kPa | 1531.84
313.15 K, 49994 kPa | 1538.48
313.15 K, 60124 kPa | 1544.89
313.15 K, 69993 kPa | 1550.88
313.16 K, 1963 kPa | 1504.67
313.16 K, 19902 kPa | 1517.96
313.16 K, 80342 kPa | 1556.93
313.16 K, 89994 kPa | 1562.32
313.17 K, 5147 kPa | 1507.08
313.17 K, 100087 kPa | 1567.72
333.13 K, 80064 kPa | 1539.77
333.13 K, 89994 kPa | 1545.53
333.14 K, 69997 kPa | 1533.66
333.14 K, 99911 kPa | 1551
333.15 K, 101.33 kPa | 1483.53
333.15 K, 60111 kPa | 1527.39
333.16 K, 49997 kPa | 1520.69
333.17 K, 2359 kPa | 1485.34
333.17 K, 5331 kPa | 1487.73
333.17 K, 40159 kPa | 1513.9
333.18 K, 30001 kPa | 1506.61
333.19 K, 9791 kPa | 1491.26
333.19 K, 18829 kPa | 1498.27
353.15 K, 101.33 kPa | 1463.97
353.18 K, 2168 kPa | 1465.71
353.18 K, 5223 kPa | 1468.32
353.18 K, 69993 kPa | 1516.73
353.18 K, 80056 kPa | 1523.09
353.18 K, 90001 kPa | 1529.06
353.19 K, 9673 kPa | 1472.06
353.19 K, 20093 kPa | 1480.58
353.19 K, 29997 kPa | 1488.37
353.19 K, 39951 kPa | 1495.89
353.19 K, 49979 kPa | 1503.15
353.19 K, 60184 kPa | 1510.23
353.19 K, 99944 kPa | 1534.73
363.15 K, 101.33 kPa | 1454.28
373.12 K, 724 kPa | 1445.01
373.14 K, 4935 kPa | 1448.84
373.14 K, 60448 kPa | 1493.21
373.14 K, 69979 kPa | 1499.69
373.14 K, 79868 kPa | 1506.16
373.14 K, 89963 kPa | 1512.49
373.14 K, 99920 kPa | 1518.52
373.16 K, 30001 kPa | 1470.33
373.16 K, 39858 kPa | 1478.08
373.16 K, 49997 kPa | 1485.67
373.17 K, 10147 kPa | 1453.42
373.18 K, 19879 kPa | 1461.85
